Measurements reported in patent US10722514B2 (FLX Bio, Inc., priority 2017, dated 2020).
Read-outs that look alike come from different tables or passages of the source.

Biological target: T1, recombinant full-length USP7 (Homo sapiens, UniProt Q93009)
T1 construct: A 25 μl reaction volume containing recombinant full-length USP7 (62 pM)
Assay: USP7-mediated ubiquitin-rhodamine cleavage assay
Type: biochemical
Details: recombinant full-length USP7 62 pM, ubiquitin-rhodamine 100 nM, 1 hour reaction at room temperature
Experimental: In the case of the USP7 deubiquitylating enzyme, the IC50 of an USP7 inhibiting compound is the concentration of the compound that inhibits 50% of the activity observed in a USP7-mediated ubiquitin-rhodamine cleavage assay.
For the USP7 inhibitors disclosed herein, their potency was measured using the following test method.
A 25 μl reaction volume containing recombinant full-length USP7 (62 pM) in 20 mM HEPES pH 7.3, 150 mM NaCl, 1 mM TCEP, and 125 μg/ml BSA was assembled in wells of 384 well plates. Test compounds were dispensed with a Hewlett Packard D300 digital dispenser (1% final DMSO). Following a 30-minute incubation at room temperature, ubiquitin-rhodamine was added with the D300 to a final concentration of 100 nM and the reaction was allowed to proceed for 1 hour at room temperature protected from light. The reaction was stopped by the addition of 5 μl 1M acetic acid. Rhodamine fluorescence was measured using an Envision plate reader (Perkin Elmer) and IC50 values were determined by non-linear regression using a 4-parameter fit in a Dotmatics (Bishops Stortford, Hertfordshire, England) software package.

[1] = 30-minute pre-incubation, read-out: Potency (USP7 IC50)
[2] = 30-minute incubation with compound, read-out: Potency: USP7 IC50

T1 sequence (Q93009 whole entry): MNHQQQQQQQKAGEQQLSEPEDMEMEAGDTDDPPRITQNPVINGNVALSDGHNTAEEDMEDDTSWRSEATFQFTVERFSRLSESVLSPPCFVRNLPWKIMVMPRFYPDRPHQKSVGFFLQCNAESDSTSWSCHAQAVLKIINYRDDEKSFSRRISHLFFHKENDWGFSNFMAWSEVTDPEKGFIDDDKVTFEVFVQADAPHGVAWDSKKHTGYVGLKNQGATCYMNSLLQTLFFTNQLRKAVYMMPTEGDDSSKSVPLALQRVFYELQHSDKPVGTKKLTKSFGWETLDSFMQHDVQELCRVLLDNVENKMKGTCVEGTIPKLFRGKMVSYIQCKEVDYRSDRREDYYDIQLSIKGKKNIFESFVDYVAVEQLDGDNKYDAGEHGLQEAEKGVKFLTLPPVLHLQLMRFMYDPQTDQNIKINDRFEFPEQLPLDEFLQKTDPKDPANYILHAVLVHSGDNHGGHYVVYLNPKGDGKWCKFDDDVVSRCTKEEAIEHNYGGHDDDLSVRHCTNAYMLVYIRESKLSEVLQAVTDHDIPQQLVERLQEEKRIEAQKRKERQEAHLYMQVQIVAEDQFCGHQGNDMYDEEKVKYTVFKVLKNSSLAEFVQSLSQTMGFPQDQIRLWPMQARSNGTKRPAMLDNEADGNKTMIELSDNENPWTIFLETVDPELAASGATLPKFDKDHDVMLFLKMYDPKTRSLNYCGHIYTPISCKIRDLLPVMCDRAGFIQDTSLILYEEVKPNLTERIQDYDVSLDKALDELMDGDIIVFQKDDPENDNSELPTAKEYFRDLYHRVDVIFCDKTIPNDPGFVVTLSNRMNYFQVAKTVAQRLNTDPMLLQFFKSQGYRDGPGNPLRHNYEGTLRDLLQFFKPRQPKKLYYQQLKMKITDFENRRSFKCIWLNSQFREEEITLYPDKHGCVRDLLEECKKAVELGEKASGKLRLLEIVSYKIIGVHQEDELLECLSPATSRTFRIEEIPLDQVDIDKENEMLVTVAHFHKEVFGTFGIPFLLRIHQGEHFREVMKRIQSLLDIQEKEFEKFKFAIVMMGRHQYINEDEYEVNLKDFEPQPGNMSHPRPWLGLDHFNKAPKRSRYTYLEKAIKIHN

Row | Compound | IC50 [1] [nM] | IC50 [2] [nM] | also measured
1 | COCCN1C[C@H](C)[C@H](Oc2c(C)cc(Cl)cc2-c2ccnc3cc(Cn4c(=O)ccn(CC(F)(F)F)c4=O)sc23)C1 [Example 645, 3-[[7-[5-chloro-2-[(3S,4S)-1-(2-methoxyethyl)-4-methyl-pyrrolidin-3-yl]oxy-3-methyl-phenyl]thieno[3,2-b]pyridin-2-yl]methyl]-1-(2,2,2-trifluoroethyl)pyrimidine-2,4-dione] | < 1000 |  | 
2 | Cc1cc(Cl)cc(-c2ccnc3cc(Cn4c(=O)ccn(C)c4=O)sc23)c1O[C@H]1CCCN(CCO)CC1 [Example 494, 3-[[7-[5-chloro-2-[(4S)-1-(2-hydroxyethyl)azepan-4-yl]oxy-3-methyl-phenyl]thieno[3,2-b]pyridin-2-yl]methyl]-1-methyl-pyrimidine-2,4-dione] | < 1000 |  | 
3 | CCc1cc(Cl)cc(-c2ccnc3cc(CO)sc23)c1OCC1CNC1 [Example 22, (7-(2-(Azetidin-3-ylmethoxy)-5-chloro-3-ethylphenyl)thieno[3,2-b]pyridin-2-yl)methanol] |  | 1000 to 10000 | 
4 | CCN1C[C@H]2C[C@@H]1[C@H](Oc1c(C)cc(Cl)cc1-c1ccnc3cc(CN4C(=O)C5C(C4=O)C5(C)C)sc13)C2 (stereo partly drawn) [Example 332, 3-[[7-[5-chloro-2-[[(1S,4R,5R)-3-ethyl-3-azabicyclo[2.2.1]heptan-5-yl]oxy]-3-methyl-phenyl]thieno[3,2-b]pyridin-2-yl]methyl]-6,6-dimethyl-3-azabicyclo[3.1.0]hexane-2,4-dione] |  | < 1000 | 
5 | Cc1cc(Cl)cc(-c2ccnc3cc(Cn4c(=O)ccn(CC(F)(F)F)c4=O)sc23)c1O[C@@H]1CCN(C(=O)C(F)(F)F)C[C@@H]1C [Example 609, 3-[[7-[5-chloro-3-methyl-2-[[(3S,4R)-3-methyl-1-(2,2,2-trifluoroacetyl)-4-piperidyl]oxy]phenyl]thieno[3,2-b]pyridin-2-yl]methyl]-1-(2,2,2-trifluoroethyl)pyrimidine-2,4-dione] | < 1000 |  | 
6 | Cc1cc(Cl)cc(-c2ccnc3cc(CN4C(=O)SC(C)(C)C4=O)sc23)c1O[C@@H]1CNC[C@@H]1F [Example 145, 3-((7-(5-Chloro-2-(((3R,4S)-4-fluoropyrrolidin-3-yl)oxy)-3-methylphenyl)thieno[3,2-b]pyridin-2-yl)methyl)-5,5-dimethylthiazolidine-2,4-dione] |  | < 1000 | 
7 | Cc1cc(Cl)cc(-c2ccnc3cc(Cn4c(=O)ccn(CC(F)(F)F)c4=O)sc23)c1O[C@@H]1CCNC[C@H]1C [Example 558, 3-[[7-[5-chloro-3-methyl-2-[[(3R,4R)-3-methyl-4-piperidyl]oxy]phenyl]thieno[3,2-b]pyridin-2-yl]methyl]-1-(2,2,2-trifluoroethyl)pyrimidine-2,4-dione] | < 1000 |  | 
8 | Cc1cc(Cl)cc(-c2ccnc3cc(Cn4c(=O)ccn(C)c4=O)sc23)c1O[C@@H]1C[C@H]2COCCN2C1 [Example 501, 3-[[7-[2-[[(7R,8aS)-3,4,6,7,8,8a-hexahydro-1H-pyrrolo[2,1-c][1,4]oxazin-7-yl]oxy]-5-chloro-3-methyl-phenyl]thieno[3,2-b]pyridin-2-yl]methyl]-1-methyl-pyrimidine-2,4-dione] | < 1000 |  | 
9 | COC[C@@H]1CCC[N+]1(C)C1CC(Oc2c(C)cc(Cl)cc2-c2ccnc3cc(Cn4c(=O)ccn(CC(F)(F)F)c4=O)sc23)C1 (stereo partly drawn) [Example 688, 3-[[7-[5-chloro-2-[3-[(2S)-2-(methoxymethyl)-1-methyl-pyrrolidin-1-ium-1-yl]cyclobutoxy]-3-methyl-phenyl]thieno[3,2-b]pyridin-2-yl]methyl]-1-(2,2,2-trifluoroethyl)pyrimidine-2,4-dione; 2,2,2-trifluoroacetate; 2,2,2-trifluoroacetic acid] |  |  | IC50 (30-minute incubation, read-out: Potency (USP7 IC50)): < 1000 nM
10 | CCC(O)c1cc2nccc(-c3cc(Cl)cc(C)c3OCC3(CC)CNC3)c2s1 (stereo not shown) [Example 38, 1-(7-(5-Chloro-2-((3-ethylazetidin-3-yl)methoxy)-3-methylphenyl)thieno[3,2-b]pyridin-2-yl)propan-1-ol] |  | < 1000 | 
11 | CCN1C[C@H]2C[C@@H]1[C@H](Oc1c(C)cc(Cl)cc1-c1ccnc3cc(CN4C(=O)CCC4=O)sc13)C2 [Example 321, 1-[[7-[5-chloro-2-[[(1S,4R,5R)-3-ethyl-3-azabicyclo[2.2.1]heptan-5-yl]oxy]-3-methyl-phenyl]thieno[3,2-b]pyridin-2-yl]methyl]pyrrolidine-2,5-dione] |  | < 1000 | 
12 | Cc1cc(Cl)cc(-c2ccnc3cc(CO)sc23)c1O[C@@H]1CC[C@H](N)C1 [Example 89, (7-(2-(((1R,3S)-3-Aminocyclopentyl)oxy)-5-chloro-3-methylphenyl)thieno[3,2-b]pyridin-2-yl)methanol] |  | 10000 to 30000 | 
13 | Cc1cc(Cl)cc(-c2ncnc3cc(CN4C(=O)CSC4=O)sc23)c1OC1CCNCC1 [Example 226, 3-((4-(5-Chloro-3-methyl-2-(piperidin-4-yloxy)phenyl)thieno[3,2-d]pyrimidin-6-yl)methyl)thiazolidine-2,4-dione] |  | 1000 to 10000 | 
14 | Cc1cc(Cl)cc(-c2ncnc3cc(Cn4c(=O)ccn(CC(F)(F)F)c4=O)sc23)c1O[C@@H]1CC[C@@H](N)C1 [Example 603, 3-[[4-[2-[(1R,3R)-3-aminocyclopentoxy]-5-chloro-3-methyl-phenyl]thieno[3,2-d]pyrimidin-6-yl]methyl]-1-(2,2,2-trifluoroethyl)pyrimidine-2,4-dione] | < 1000 |  | 
15 | Cc1cc(C#N)cc(-c2ncnc3cc(CN4C(=O)c5ccccc5C4=O)sc23)c1O[C@@H]1CNC[C@@H]1F [Example 110, 3-(6-((1,3-Dioxoisoindolin-2-yl)methyl)thieno[3,2-d]pyrimidin-4-yl)-4-(((3R,4S)-4-fluoropyrrolidin-3-yl)oxy)-5-methylbenzonitrile] |  | < 1000 | 
16 | Cc1cc(Cl)cc(-c2ccnc3cc(Cn4c(=O)ccn(CC(F)(F)F)c4=O)sc23)c1OC1CC2CNC1C2 (stereo not shown) [Example 535, 3-[[7-[2-(3-azabicyclo[2.2.1]heptan-5-yloxy)-5-chloro-3-methyl-phenyl]thieno[3,2-b]pyridin-2-yl]methyl]-1-(2,2,2-trifluoroethyl)pyrimidine-2,4-dione] | < 1000 |  | 
17 | Cc1cc(Cl)cc(-c2ccnc3cc(CN4C(=O)SC(C)(C)C4=O)sc23)c1O[C@H]1CCCNC1 [Example 295, 3-[[7-[5-chloro-3-methyl-2-[[(3S)-3-piperidyl]oxy]phenyl]thieno[3,2-b]pyridin-2-yl]methyl]-5,5-dimethyl-thiazolidine-2,4-dione; 2,2,2-trifluoroacetic acid] |  | < 1000 | 
18 | Cc1cc(Cl)cc(-c2ccnc3cc(Cn4c(=O)ccn(CC(F)(F)F)c4=O)sc23)c1O[C@@H]1CCN(CC(F)F)C[C@@H]1C [Example 642, 3-[[7-[5-chloro-2-[[(3S,4R)-1-(2,2-difluoroethyl)-3-methyl-4-piperidyl]oxy]-3-methyl-phenyl]thieno[3,2-b]pyridin-2-yl]methyl]-1-(2,2,2-trifluoroethyl)pyrimidine-2,4-dione] | < 1000 |  | 
19 | Cc1cc(Cl)cc(-c2ccnc3cc(CN4C(=O)CCC4=O)sc23)c1O[C@H]1CCNC[C@@H]1F [Example 208, 1-((7-(5-Chloro-2-(((3S,4S)-3-fluoropiperidin-4-yl)oxy)-3-methylphenyl)thieno[3,2-b]pyridin-2-yl)methyl)pyrrolidine-2,5-dione] |  | < 1000 | 
